Source: publication PMC8395737 (2021)

Experiments:
[1] = system: TP3-T6 (DNA, G4) TGGGGTCCGAGGCGGGGCTTGGG; assay: 1H NMR imino proton titration; settings: 70 mM KCl, 20 mM KH2PO4, pH 7.0, 25 °C, H2O/D2O 9:1, DMSO <7%
[2] = system: TP3-T6 (DNA, G4) TGGGGTCCGAGGCGGGGCTTGGG; assay: CD melting at 285 nm; settings: 70 mM KCl, 20 mM phosphate, pH 7.1, 2 µM DNA, 6 µM ligand
[3] = system: TP3-T6 (DNA, G4) TGGGGTCCGAGGCGGGGCTTGGG; assay: ligand fluorescence titration, EQUISPEC multivariate fit; settings: 70 mM KCl, 20 mM potassium phosphate; 20 mM phosphate buffer, pH 7.1, 20 °C, 3 µM ligand

Compound	binding ([1]; up to R = 2.0, DNA 0.24–0.48 mM)	ΔTm ([2]; derived from two Tm (60.2 ± 1.0, 59.6 ± 0.8)) [°C]	binding ([1]; R up to 2.0, 3'-end tetrad)	Kb [3]	ΔTm ([2]; derived from two Tm (58.8 ± 1.3, 59.6 ± 0.8)) [°C]	binding ([1]; R up to 2.0, 5'-end tetrad slightly shifted)	ΔTm ([2]; derived from two Tm (60.3 ± 1.3, 59.6 ± 0.8)) [°C]
O=C(c1cc(Cc2n[nH]c(=O)c3ccccc23)ccc1F)N1CCN(C(=O)C2CC2)CC1	no						
NC(=O)n1ccc2ccc(-c3ccc(CN4CCCCC4)cc3)nc21		0.6	yes	5.45 ± 0.15 × 10^5 M^-1			
C[C@]1(c2nc3c(C(N)=O)cccc3[nH]2)CCCN1				5.48 ± 0.16 × 10^5 M^-1	-0.8	weak	
NC(=O)c1cccc2cn(-c3ccc([C@@H]4CCCNC4)cc3)nc12			yes	5.24 ± 0.20 × 10^5 M^-1			0.7
